# In patent US20070099852A1, “CUCURBITACIN COMPOUNDS” (SOUTH DAKOTA STATE UNIVERSITY, priority 2005, published 2007):
# Marks after values point to notes of the source that are not given here.
# Assays:
# [1] = Chromatographic hydrophobicity index (CHI) by RP-HPLC in buffered methanol; type: physicochemical; conditions: isochratic and gradient elution of standard mixture
# [2] = Chromatographic hydrophobicity index (CHI) by RP-HPLC in buffered acetonitrile; type: physicochemical; conditions: isochratic and gradient elution of standard mixture
# [3] = gradient elution of standard mixture and correlation with published data; published CHI values; cited from earlier work
# [4] = test system: HSC-T6 cells; assay: Serum-driven HSC-T6 proliferation, Experiment 1 (4 h challenge); type: cell-based, rat; conditions: for Experiment 1 anti-proliferation activity at 100 μM: HSC-T6, measured at 100 μM
# Procedure: The proliferation effect of serum on HSC-T6 cells was optimized and cucurbitacin antiproliferative activity was measured. Serum contains a large number of growth factors, hormones and other nutrients, which help cells to grow and multiply. Several trials were conducted. In experiment 1, cells were challenged with cucurbitacin analogs for 4 h and then cells were grown in drug-free media for two additional days.
# We established several experimental conditions such as 4 hours of incubation time with cucurbitacin, and 2 day cell incubation with fresh media after challenging with cucurbitacin (Exp. 1). Other experiments involved addition of cucurbitacin for 24 hours over starved cells (Exp. 2) vs. proliferating cells (Exp. 3), and one day incubation of cells with fresh media after challenge. […] Because of that, the challenge time was increased to 24 hours (Exp. 2 and 3).
# We modified this approach. Our assay included a second control (ZC) supplemented with no serum intended to measure cucurbitacin anti-proliferation effect relative to the number of cells generated during challenge instead of the total number of cells present in each well.
# [5] = ABTS Radical Cation Decolorization Assay; conditions: 50 μM, 100 μM, and 1.8 mM; up to 2 hours
# Procedure: Cucurbitacin B activity was monitored at 50 μM, 100 μM, and 1.8 mM. The time interval was expanded up to 2 hours in case cucurbitacin B was reacting slowly.
# [6] = DPPH Stable Free Radical Scavenging Assay; conditions: for DPPH activity at 50 μM: up to 30 minutes incubation
# Procedure: Cucurbitacin antioxidant activity was studied first by the DPPH® Stable Free Radical Scavenging Assay (Cotelle et al., Free radical Biology & Medicine 20(1): 35-43, 1996). Experimental conditions were optimized on the standard compound ascorbic acid. Data indicated 30% activity at 50 μM concentration, and 100% activity at 100 μM for ascorbic acid. While the original assay required 10 minutes incubation time for the reaction to occur, this time was increased up to 30 minutes in case cucurbitacin were reacting slower than other reagents.
# [7] = test system: HepG2 cells; conditions: for cytoprotection on HepG2 cells at 6.25% IC50: compound at 6.25% of its IC50, CCl4 4.5×10^−3 M; for cytoprotection on HepG2 cells at 12.5% IC50: compound at 12.5% of its IC50, CCl4 4.5×10^−3 M; for cytoprotection on HepG2 cells at 20% IC50: compound at 20% of its IC50, CCl4 4.5×10^−3 M; for cytoprotection on HepG2 cells at 50% IC50: compound at 50% of its IC50, CCl4 4.5×10^−3 M
# From the text: The activity of two toxins was studied first on HepG2 cells—bromobenzene (BB) and CCl4. Cells were challenged with the toxins at different concentration levels.
# Experimental conditions were standardized on silybin. Cells were challenged with CCl4 (4.5×10^−3M) in presence of silybin at various concentrations.
# The ratio of IC50-to-EC50 (hereafter T/A) is also indicated in this table, which gives the margin between toxic and cytoprotective concentrations.
# [8] = test system: HepG2 cells; type: cell-based, human; conditions: HepG2, toxin at 4.5×10^−3 M
# Procedure: The activity of two toxins was studied first on HepG2 cells—bromobenzene (BB) and CCl4. Cells were challenged with the toxins at different concentration levels. Precipitate formation was observed when BB was diluted with media prior to addition to the cells; therefore, both the precipitate and the supernatant were added separately over cells to study their toxic effect.
# [9] = test system: HSC-T6 cells; assay: PDGF-driven proliferation of HSC-T6 cells; type: cell-based, rat; conditions: HSC-T6, incubation with PDGF for 2 days; not reproducible
# From the text: The proliferation assay described by Zhang et al. (Zhang et al., Acta Pharmacol. Sin. 21: 253-256, 2000), was followed to determine the proliferative effect of PDGF on HSC-T6 cells, and yielded to total cell confluency prior to the addition of PDGF to the cells. Therefore, experimental conditions were changed stepwise to reduce cell confluency. When cell concentration was reduced from the initial 10,000 to 4,000 cells/well, and FBS concentration was reduced from 10 to 2%, cell confluency reached approximately 50% prior to the addition of PDGF. […] Further modifications to the initial assay were done such as increase of period of incubation or increase of PDGF concentration. Cells incubation with PDGF for 2 days indicated some degree of proliferation (0-22%), but it was not reproducible from one trial to the other.
# The experimental conditions presented by Yang et al. (Yang et al., World J. Gastroenterol. 9: 2050-2053, 2003) were also examined. It involved 1-day cell starvation in serum-free media followed by 3 h challenge with drug candidates and then 2 days incubation with PDGF in serum-free media. In our study, PDGF was added at various concentration levels to starved cells and incubation period with PDGF was increased to 2-to-3 days. However, we could not achieve a stable and significant level of cell proliferation in the presence of PDGF. […]
# [10] = test system: HSC-T6 cells; assay: Cucurbitacin cytotoxicity on HSC-T6 (Experiment 3); type: cell-based, rat; conditions: 24 h
# From the text: Cytotoxicity of all cucurbitacin analogs was additionally measured in experiment 3 (Table 8).
compound,measurement,setting,value
"CC(=O)c1ccccc1 [Acetophenone (21), acetophenone]",CHIMeOH^b (standard compounds),[1],52.47 ± 0.05
same,CHIACN^b (standard compounds),[2],61.93 ± 0.05
same,CHIACN^c (standard compounds),[3],64.90
"CC(C)(O)/C=C/C(=O)[C@](C)(O)C1[C@H](O)C[C@@]2(C)C3CC=C4C(C=C(O[C@@H]5O[C@H](CO)[C@@H](O)[C@H](O)[C@H]5O)C(=O)C4(C)C)[C@]3(C)C(=O)C[C@]12C (some centres unmarked) [I-Gluc, cucurbitacin I glucoside]",Experiment 1 anti-proliferation activity at 100 μM,[4],˜20% ^a
"CC(=O)OC(C)(C)/C=C/C(=O)[C@](C)(O)[C@H]1[C@H](O)C[C@@]2(C)[C@@H]3CC=C4[C@H](C[C@H](O)C(=O)C4(C)C)[C@]3(C)C(=O)C[C@]12C [B, cucurbitacin B]",ABTS activity,[5],No activity
same,DPPH activity at 50 μM,[6],did not indicate any activity
same,cytoprotection on HepG2 cells at 6.25% IC50,[7],12.45 ± 1.11
same,cytoprotection on HepG2 cells at 12.5% IC50,[7],25.25 ± 1.36
same,cytoprotection on HepG2 cells at 20% IC50,[7],34.92 ± 2.76
same,cytoprotection on HepG2 cells at 50% IC50,[7],60.01 ± 0.80
"Brc1ccccc1 [Bromobenzene (29), bromobenzene]",CHIMeOH^b (standard compounds),[1],69.43 + 0.07
"Nc1ccccc1 [Aniline (28), aniline]",CHIMeOH^b (standard compounds),[1],29.94 ± 0.05
"CCCC(=O)c1ccccc1 [Butyrophenone (24), butyrophenone]",CHIMeOH^b (standard compounds),[1],66.79 ± 0.05
same,CHIACN^b (standard compounds),[2],79.32 ± 0.14
same,CHIACN^c (standard compounds),[3],88.49
ClC(Cl)(Cl)Cl [CCl4],cell viability,[8],40%-50%
"c1ccc2[nH]ccc2c1 [Indole (22), indole]",CHIACN^b (standard compounds),[2],67.73 + 0.13
same,CHIACN^c (standard compounds),[3],69.15
"CC(=O)OC(C)(C)/C=C/C(=O)[C@](C)(O)[C@H]1[C@H](O)C[C@@]2(C)[C@@H]3CC=C4[C@@H](C=C(O[C@@H]5O[C@H](CO)[C@@H](O)[C@H](O)[C@H]5O)C(=O)C4(C)C)[C@]3(C)C(=O)C[C@]12C [E-Gluc, cucurbitacin E glucoside]",Experiment 1 anti-proliferation activity at 100 μM,[4],˜46% ^a
same,cytoprotection on HepG2 cells at 6.25% IC50,[7],−2.36 ± 1.08
same,cytoprotection on HepG2 cells at 12.5% IC50,[7],17.96 ± 1.14
same,cytoprotection on HepG2 cells at 20% IC50,[7],49.44 ± 0.29
same,cytoprotection on HepG2 cells at 50% IC50,[7],33.92 ± 2.92
CC(C)OC1=CC2C(=CCC3C2(C)C(=O)CC2(C)C(C(C)(O)C(=O)C=CC(C)(C)O)C(O)CC32C)C(C)(C)C1=O (centres unmarked) [I-iPr],cytoprotection on HepG2 cells at 6.25% IC50,[7],−17.10 ± 1.54
same,cytoprotection on HepG2 cells at 12.5% IC50,[7],4.15 ± 0.48
same,cytoprotection on HepG2 cells at 20% IC50,[7],18.69 ± 0.13
same,cytoprotection on HepG2 cells at 50% IC50,[7],41.73 ± 2.06
cucurbitacin E,cytoprotection on HepG2 cells at 6.25% IC50,[7],12.41 ± 0.78
same,cytoprotection on HepG2 cells at 12.5% IC50,[7],21.72 ± 0.75
same,cytoprotection on HepG2 cells at 20% IC50,[7],49.21 ± 1.73
same,cytoprotection on HepG2 cells at 50% IC50,[7],80.55 ± 6.80
"COc1cc2c(c(OC)c1OC)-c1ccc(OC)c(=O)cc1[C@@H](NC(C)=O)CC2 [Colchicine (26), colchicine]",CHIMeOH^b (standard compounds),[1],57.56 + 0.04
same,CHIACN^c (standard compounds),[3],41.37
"CCC(=O)c1ccccc1 [Propiophenone (23), propiophenone]",CHIMeOH^b (standard compounds),[1],60.41 + 0.04
same,CHIACN^b (standard compounds),[2],71.72 + 0.15
same,CHIACN^c (standard compounds),[3],78.41
"Cn1c(=O)c2nc(-c3ccccc3)[nH]c2n(C)c1=O [Ph-theophylline (27), phenyltheophylline]",CHIMeOH^b (standard compounds),[1],61.61 ± 0.04
same,CHIACN^c (standard compounds),[3],52.04
"Cn1c(=O)c2[nH]cnc2n(C)c1=O [Theophylline (19), theophylline]",CHIMeOH^b (standard compounds),[1],25.76 ± 0.05
same,CHIACN^b (standard compounds),[2],32.63 ± 0.07
same,CHIACN^c (standard compounds),[3],15.76
"CCCOC1=CC2C(=CCC3C2(C)C(=O)CC2(C)C(C(C)(O)C(=O)C=CC(C)(C)O)C(O)CC32C)C(C)(C)C1=O (centres unmarked) [I-nPr, cucurbitacin I-nPr]",Experiment 1 anti-proliferation activity at 2-6 μM,"[4]; HSC-T6, measured at 2-6 μM",˜18% ^b
O=C1O[C@H]([C@@H](O)CO)C(O)=C1O [ascorbic acid],DPPH activity at 50 μM,[6],30%
same,DPPH activity at 100 μM,[6]; 100 μM,100%
PDGF,degree of proliferation,[9],0-22%
"CCCCC(=O)c1ccccc1 [Valerophenone (25), valerophenone]",CHIMeOH^b (standard compounds),[1],73.05 + 0.12
same,CHIACN^b (standard compounds),[2],86.66 ± 0.08
same,CHIACN^c (standard compounds),[3],97.67
"CC(C)(O)/C=C/C(=O)[C@](C)(O)[C@H]1[C@H](O)C[C@@]2(C)[C@@H]3CC=C4[C@@H](C=C(O)C(=O)C4(C)C)[C@]3(C)C(=O)C[C@]12C [I, cucurbitacin I]",cytoprotection on HepG2 cells at 6.25% IC50,[7],4.55 ± 0.64
same,cytoprotection on HepG2 cells at 12.5% IC50,[7],17.50 ± 1.32
same,cytoprotection on HepG2 cells at 20% IC50,[7],50.09 ± 1.02
same,cytoprotection on HepG2 cells at 50% IC50,[7],54.75 ± 0.29
"COc1cc(C2Oc3cc([C@H]4Oc5cc(O)cc(O)c5C(=O)[C@@H]4O)ccc3OC2CO)ccc1O (some centres unmarked) [Silybin, reference compound]","Experiment 3 IC50 (μM, T)",[10],non
same,Experiment 1 anti-proliferation activity at 100 μM,[4],˜20% ^a
same,cell growth with silybin alone,"[7]; HepG2, silybin alone, 14 to 200 μM",up to 125%
same,toxicity of silybin alone on HepG2 cells,"[7]; silybin alone, absence of CCl4, 14 to 200 μM (FIG. 4)",no toxicity
"c1ccc2[nH]cnc2c1 [Benzimidazole (20), benzimidazole]",CHIMeOH^b (standard compounds),[1],41.07 ± 0.04
same,CHIACN^b (standard compounds),[2],43.18 ± 0.12
same,CHIACN^c (standard compounds),[3],30.71
